Target: T1, Collagenase 3 (MMP13) (Homo sapiens, UniProt P45452)
T1 construct: made in house
Assay: Collagenase 3 (MMP13) enzyme inhibition, fluorogenic peptide substrate
Type: biochemical
Conditions: recombinant human proMMP13 activated with APMA; 4-5 hours at 35° C., pH 7.5; fluorescence λex 328 nm, λem 393 nm; read-out: IC50 (nM), collagenase 3 (MMP13) inhibitory activity
From the text: The activity and selectivity of the compounds according to the invention may be determined using an appropriate enzyme inhibition test as described in WO 00/12478, WO 00/75108 and WO 01/62742. Collagenase 3 (MMP13) inhibitory activity may be assessed, for example, using the procedure set out below:—
Recombinant human proMMP13 may be expressed and purified as described by Knauper et al. [V. Knauper et al., (1996) The Biochemical Journal 271:1544-1550 (1996)]. The purified enzyme can be used to monitor inhibitors of activity as follows: purified proMMP13 is activated using 1 mM amino phenyl mercuric […] (APMA), 20 hours at 21° C.; the activated MMP13 (11.25 ng per assay) is incubated for 4-5 hours at 35° C. in assay buffer (0.1M Tris-HCl, pH 7.5 containing 0.1M NaCl, 20 mM CaCl2, 0.02 mM ZnCl and 0.05% (w/v) Brij 35 using the synthetic substrate 7-methoxycoumarin-4-yl)acetyl.Pro.Leu.Gly.Leu.N-3-(2,4-dinitrophenyl)-L-2,3-diaminopropionyl.Ala.Arg.NH2 in the presence or absence of inhibitors. Activity is determined by measuring the fluorescence at λex 328 nm and λem 393 nm. By measuring the activity at a range of concentrations, a binding curve can be generated from which the IC50 can be determined, this figure being the inhibitor concentration at which the enzyme activity is reduced by 50%.

Row | Compound | IC50 [nM]
1 | O=CN(O)C(CCc1ncc(F)cn1)CS(=O)(=O)N1CCN(c2ccc(OCC(F)(F)F)cn2)CC1 (centres unmarked) [Example 2b] | 0.24
2 | O=CN(O)C(CS(=O)(=O)N1CCN(c2ncc(OCC(F)(F)F)cn2)CC1)C1CCOCC1 (centres unmarked) [Example 2f] | 13
3 | O=CN(O)C(CS(=O)(=O)N1CCN(c2ccc(OC(F)(F)C(F)F)cc2)CC1)c1ccccc1 (centres unmarked) [Example 5, Hydroxy[1-phenyl-2-({4-[4-(1,1,2,2-tetrafluoroethoxy)phenyl]piperazin-1-yl}sulfonyl)ethyl]formamide] | 3.6
4 | O=CN(O)C(CCc1ncccn1)CS(=O)(=O)N1CCN(c2ccc(OCC(F)(F)F)cc2)CC1 (centres unmarked) [Example 8b] | 1.5
5 | O=CN(O)C(CS(=O)(=O)N1CCN(c2ccc(OCC(F)(F)F)cc2)CC1)C1CCOCC1 (centres unmarked) [Example 8g] | 4

Results, then the compound that gave them:

Row | IC50 [nM] | Compound
6 | 2.8 | CCC(CS(=O)(=O)N1CCN(c2ccc(OC(F)(F)C(F)F)cc2)CC1)N(O)C=O (racemic) [Example 7f]
7 | 0.12 | O=CN(O)C(CCCc1ncccn1)CS(=O)(=O)N1CCN(c2ccc(OC(F)(F)C(F)F)cc2)CC1 (centres unmarked) [Example 7a]
8 | 0.19 | O=CN(O)C(CCc1ncc(F)cn1)CS(=O)(=O)N1CCN(c2ccc(OC(F)(F)C(F)F)cc2)CC1 (centres unmarked) [Example 7c]

Test system: not given
Assay: not given
Conditions: not given

Row | melting point [°C] | Compound
9 | 129 to 133 | O=CN(O)[C@@H](CCCc1ncccn1)CS(=O)(=O)N1CCN(c2ncc(OCC(F)(F)F)cn2)CC1 [Example 1, Hydroxy{(1S)-4-pyrimidin-2-yl-1-[({4-[5-(2,2,2-trifluoroethoxy)pyrimidin-2-yl]piperazin-1-yl}sulfonyl)methyl]butyl}formamide]
10 | 149 to 151 | O=CN(O)[C@@H](CCc1ncccn1)CS(=O)(=O)N1CCN(c2ccc(OCC(F)(F)F)cn2)CC1 [Example 3, Hydroxy{(1S)-3-pyrimidin-2-yl-1-[({4-[5-(2,2,2-trifluoroethoxy)pyridin-2-yl]piperazin-1-yl}sulfonyl)methyl]propyl}formamide]
11 | 175 to 176 | O=CN(O)[C@H](CS(=O)(=O)N1CCN(c2ccc(OC(F)(F)C(F)F)cc2)CC1)C1CCOCC1 [Example 4, Hydroxy[(1S)-2-({4-[4-(1,1,2,2-tetrafluoroethoxy)phenyl]piperazin-1-yl}sulfonyl)-1-(tetrahydro-2H-pyran-4-yl)ethyl]formamide]

— patent publication US7485644B2, “N-{'4-substituted piperazine-1-sulfonylmethylalkyl}-n-hydroxyfomamide compounds as metalloproteinase inhibitors” (AstraZeneca AB, priority 2003, dated 2009)
